Marks after values point to notes of the source that are not given here.

The results in this text go back to patent publication US10383837B2, “Compositions and methods for modulating metabolic pathways” (NuSirt Sciences, Inc., priority 2011, dated 2019).

Assay [1] concerns adipocytes (3T3-L1) and myotubes (C2C12). The experiment in a line: Fatty acid oxidation screening: dose-response curves and synergy, cell type not separately stated. The note with it: for concentration that exerts no effect in dose-response curves (sub-therapeutic dose used in synergy experiments): fatty acid oxidation dose-response. The assay is classed as cell-based.
For another assay, the system named is myotubes (C2C12). The experiment in a line: Fatty acid oxidation, palmitate-induced O2 consumption (Seahorse XF24), myotubes. The assay is classed as cell-based. The note with it: 24 hours treatment, leucine 0.5 mM, HMB 5 μM, resveratrol 200 nM, partner at its no-effect concentration, % change from control.
The test system of assay [2] is c2c12 myotubes. The experiment in a line: Glucose utilization, extracellular acidification response to glucose, myotubes. The assay is classed as cell-based. To be noted: leucine 0.5 mM, HMB 5 μM, resveratrol 200 nM, partner at its no-effect concentration. As to the method: All compounds were tested for potential to independently or synergistically modulate sirtuin signaling either by direct stimulation or indirect via upstream signaling via AMPK. A key outcome of Sirt1 signaling is stimulation of PGC1-α and subsequent stimulation of mitochondrial biogenesis and fatty acid oxidation. Accordingly, fatty acid oxidation, measured as palmitate-induced oxygen consumption as described below, was utilized as a sensitive first level of screening for aerobic mitochondrial metabolism. A dose-response curve for fatty acid oxidation was established for each compound studied, and a “sub-therapeutic dose” was defined as the highest dose that exerted no effect in this system. […] Following assessment of fatty acid oxidation, Sirt1 activity, AMPK activity, mitochondrial biogenesis and glucose utilization (measured as glucose-induced extracellular acidification in the absence of fatty acids in the media) were assessed for lead combinations and appropriate controls. In the absence of a fatty acid source and oxidative metabolism, glycolysis and subsequent lactate production results in extracellular acidification, which was also measured using a Seahorse Bioscience XF24 analyzer. […] Data for each sample were normalized to the pre-glucose injection baseline for that sample and expressed as % change from that baseline. […]

Assay [3] relates to PGC-1α, NRF-1, UCP3 genes. As to the kind of experiment: Expression of mitochondrial regulatory and component genes. The assay is classed as cell-based.
In the next assay the target is T1, Sirt3 (Mus musculus, UniProt Q8R104).
T1 construct: endogenous in cells; host or cells: 3T3-L1 adipocytes (mitochondrial protein)
T1 sequence (Q8R104 1-334): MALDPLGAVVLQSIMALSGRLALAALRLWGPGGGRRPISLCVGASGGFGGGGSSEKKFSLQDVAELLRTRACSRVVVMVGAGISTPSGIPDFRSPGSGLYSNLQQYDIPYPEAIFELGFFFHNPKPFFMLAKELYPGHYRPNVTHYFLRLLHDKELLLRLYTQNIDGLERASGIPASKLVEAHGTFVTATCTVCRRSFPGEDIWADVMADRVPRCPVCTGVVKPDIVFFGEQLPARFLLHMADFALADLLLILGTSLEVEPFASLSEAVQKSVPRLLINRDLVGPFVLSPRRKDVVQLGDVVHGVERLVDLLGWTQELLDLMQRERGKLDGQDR
The experiment in a line: Sirt3 activity in mitochondrial protein of treated 3T3-L1 adipocytes. The assay is classed as cell-based. To be noted: leucine 0.5 mM, HMB 5 μM, resveratrol 200 nM; summary in Example 5.

The next assay has as its target T2, SIRT1 (Mus musculus, UniProt Q923E4).
T2 sequence (Q923E4 1-737): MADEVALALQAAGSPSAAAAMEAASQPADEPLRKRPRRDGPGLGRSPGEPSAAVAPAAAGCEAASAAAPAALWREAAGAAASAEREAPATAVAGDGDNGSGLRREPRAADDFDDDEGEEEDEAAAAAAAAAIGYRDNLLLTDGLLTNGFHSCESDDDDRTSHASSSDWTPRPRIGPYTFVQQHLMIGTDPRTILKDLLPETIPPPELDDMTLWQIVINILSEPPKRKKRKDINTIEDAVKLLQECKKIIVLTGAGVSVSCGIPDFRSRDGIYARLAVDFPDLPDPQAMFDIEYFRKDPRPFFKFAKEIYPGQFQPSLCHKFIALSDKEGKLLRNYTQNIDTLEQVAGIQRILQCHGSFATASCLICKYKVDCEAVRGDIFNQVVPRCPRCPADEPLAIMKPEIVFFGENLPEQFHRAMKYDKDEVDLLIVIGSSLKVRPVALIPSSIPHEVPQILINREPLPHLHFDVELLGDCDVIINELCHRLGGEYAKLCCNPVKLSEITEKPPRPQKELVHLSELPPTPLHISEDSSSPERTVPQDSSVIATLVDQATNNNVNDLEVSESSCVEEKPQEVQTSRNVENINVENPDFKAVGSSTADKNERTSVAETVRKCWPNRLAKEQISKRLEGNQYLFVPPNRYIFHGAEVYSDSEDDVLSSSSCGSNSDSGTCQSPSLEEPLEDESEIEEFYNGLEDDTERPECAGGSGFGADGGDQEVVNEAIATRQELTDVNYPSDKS
The experiment in a line: Adipose tissue Sirt1 activity in diet-induced obese mice. The assay is classed as in vivo, c57/BL6 mice. Details: from tissue; host or cells: adipose tissue of diet-induced obese c57/BL6 mice. The note with it: 6 weeks, low dose of resveratrol, HMB, leucine diets.

In another assay the test system is myotube. The experiment in a line: Myotube mitochondrial biogenesis, fluorometric NAO binding, Example 1. The assay is classed as cell-based. The note with it: myotubes. As to the method:
(§1) We next investigated the role of intact leucine (0-0.5 mM) vs. its metabolites, α-ketoisocaproic acid (KIC) (0-0.5 mM) and HMB (0-50 μM). […] Both leucine and HMB increased myotube mitochondrial biogenesis (assessed fluorometrically via NAO binding) by ˜50%, (p<0.005, FIG. 3).

Assay [4] can be described thus: Body weight, weight gain and visceral adipose volume in diet-induced obese mice. To be noted: 6 weeks on diet, low resveratrol 12.5 mg/kg diet, low HMB 2 g CaHMB/kg diet, high HMB 10 g CaHMB/kg diet, leucine 2.42% of diet. The assay is classed as in vivo, c57/BL6 mice. From the text: (§2) Six week old male c57/BL6 mice were fed a high-fat diet with fat increased to 45% of energy (Research Diets D12451) for 6 weeks to induce obesity.
At the of the treatment period (6 weeks) all animals were humanely euthanized, and blood and tissues collected for further experiments.

Assay [5] relates to C-reactive protein, IL-6, MCP-1, adiponectin. As to the kind of experiment: Circulating inflammatory biomarkers in diet-induced obese mice. The assay is classed as in vivo, c57/BL6 mice. To be noted: 6 weeks on diet, low resveratrol 12.5 mg/kg diet, low HMB 2 g CaHMB/kg diet, high HMB 10 g CaHMB/kg diet, leucine 2.42% of diet.
Assay [6] can be described thus: Indices of insulin sensitivity (plasma glucose, insulin, HOMAIR) in diet-induced obese mice. The assay is classed as in vivo, c57/BL6 mice. To be noted: 6 weeks on diet, low resveratrol 12.5 mg/kg diet, low HMB 2 g CaHMB/kg diet, high HMB 10 g CaHMB/kg diet, leucine 2.42% of diet.
Text: Insulin sensitivity can be measured using a variety of techniques, including HOMAIR. HOMAIR, which is the homeostasis model assessment of insulin resistance can be used as a screening index of changes in insulin sensitivity. HOMAIR can be calculated via standard formula from fasting plasma insulin and glucose as follows: HOMAIR=[Insulin (uU/mL)×glucose (mM)]/22.5.
as §2

The test system of another assay is Adipocytes (3T3-L1). The experiment in a line: Fatty acid oxidation by 3H-palmitate in 3T3-L1 adipocytes. The assay is classed as cell-based. To be noted: 4 hours, resveratrol 200 nM, HMB 5 uM, leucine 0.5 mM; for increase in fatty acid oxidation, low glucose: low (5 mM) glucose. As to the method:
High glucose medium reduced fatty acid oxidation by 46% (p<0.05).
Fatty acid oxidation was measured using ^3H-labeled palmitate oxidation, with the ^3H label trapped as water as a result of the fat oxidation. The ^3H was then measured via scintillation counter.

Assay [7] has as its system c2c12 myotubes. As to the kind of experiment: Fatty acid oxidation (FAO) in c2c12 myotubes, Example 1. The assay is classed as cell-based. The note with it: in the presence and absence of 20 nM rapamycin. The procedure:
We have shown that catabolic systems are also stimulated to fuel this process, resulting in increased mitochondrial biogenesis and fatty acid oxidation (FAO). To address the mechanism of this effect, we first determined its mTOR-dependence by assessing leucine stimulation of FAO in the presence and absence of 20 nM rapamycin; although rapamycin inhibited FAO in c2c12 myotubes, the degree of leucine stimulation was preserved (˜50%, p<0.03; FIG. 1).
as §1

For assay [8] the following is noted: db/db mice, day 7, insulin 0.75 U/kg i.p.; standard metformin dose or blends.
Assay [9] can be described thus: Plasma insulin, glucose and HOMAIR in diabetic db/db mice. The assay is classed as in vivo. To be noted: 2 weeks, low dose (150 mg/kg) and very low dose (50 mg/kg) of metformin.
The conditions of assay [10]: db/db mice, 2 weeks.

On to `O=C(O)/C=C/c1ccc(O)c(O)c1` [Caffeic acid, caffeic acid], for which the “concentration that exerts no effect in dose-response curves (sub-therapeutic dose used in synergy experiments)” value (from here on “concentration that exerts no effect”) in assay [1] was at most 1000 nM.

In the case of `Cn1c(=O)c2c(ncn2C)n(C)c1=O` [Caffeine, caffeine, reference compound], the “increase in myotube fatty acid oxidation” value with myotubes (C2C12) is given as “neither component exerted an independent effect”.

On to `O=C(O[C@@H]1Cc2c(O)cc(O)cc2O[C@@H]1c1cc(O)c(O)c(O)c1)c1cc(O)c(O)c(O)c1` [EGCG, epigallocatechin gallate], for which the “independent activity in dose-response curves / direct stimulation of fatty acid oxidation” value in assay [1] is given as “minimally active”. In the assay on c2c12 myotubes [2], the “increase in glucose utilization, myotubes” value was “no independent effect”.

As to `O=c1oc2c(O)c(O)cc3c(=O)oc4c(O)c(O)cc1c4c23` [Ellagic acid, ellagic acid], the “independent activity in dose-response curves / direct stimulation of fatty acid oxidation” value in assay [1] is on record as “little activity, even at high concentrations”.

For `CC(C)(O)CC(=O)O` [HMB, beta-hydroxymethylbutyrate], in assay [3], the “expression of mitochondrial regulatory (PGC-1α and NRF-1) and component (UCP3) genes” value was “stimulated expression”. The “stimulation of Sirt3” value on Sirt3 is listed as “no independent effects”. On SIRT1, the “adipose tissue Sirt1 activity” value is listed as “Neither resveratrol nor HMB exerted significant independent effects”. For the same compound, the “increase in myotube mitochondrial biogenesis (NAO binding)” value in the assay with myotube is reported as about 50%. Besides, in assay [4], the “Visceral Adipose Volume” value is 6184 ± 460^a mm^3, the Weight is listed as 40.3 ± 2.1^a g and the Weight gain came to 22.5 ± 1.2 g. Further, in assay [5], the Adiponectin is 11.1 ± 1.6^a ng/mL, the C-reactive protein is 98.6 ± 5.1^a ng/mL, the IL-6 is given as 19.9 ± 3.1^a pg/mL and the MCP-1 is given as 116.8 ± 9.3^a pg/mL. Also, in [6], the “Glucose (plasma)” value was 4.28 ± 0.49^a mM and the “Insulin (plasma)” value is on record as 8.3 ± 1.1^a μU/mL. Further, the “increase in fatty acid oxidation, high glucose” value with Adipocytes (3T3-L1) (high (25 mM) glucose, vs. control) came out at 29%. Also, in the assay on Adipocytes (3T3-L1), the “increase in fatty acid oxidation, low glucose” value is on record as “no independent effect”.

Take `OC[C@@H](O)[C@@H](O[C@H]1O[C@H](CO)[C@@H](O)[C@H](O)[C@H]1O)[C@H](O)[C@@H](O)CO` [Maltitol, maltitol]: the “concentration that exerts no effect” value in [1] is at most 100 nM. The “synergy with HMB or leucine in stimulating fatty acid oxidation” value in assay [1] (leucine 0.5 mM, HMB 5 μM) is “no synergy was noted”.

As to `Cn1c(=O)c2[nH]cnc2n(C)c1=O` [Theophylline, theophylline, reference compound], in [1], the “concentration that exerts no effect” value is listed as “below 1 μM”.

In the case of `CC(C)C[C@H](N)C(=O)O` [leucine], in [3], the “expression of mitochondrial regulatory (PGC-1α and NRF-1) and component (UCP3) genes” value was “stimulated expression”. Further, the “stimulation of Sirt3” value on Sirt3 was “no independent effects”. Further, the “degree of leucine stimulation of FAO” value with c2c12 myotubes [7] is listed as about 50%. Further, the “increase in myotube mitochondrial biogenesis (NAO binding)” value in the assay with myotube is on record as about 50%. Besides, in the assay with Adipocytes (3T3-L1), the “increase in fatty acid oxidation, low glucose” value is given as “no independent effect”.

As to `CN(C)C(=N)N=C(N)N` [metformin], the “decrease in blood glucose over the 30 minute linear portion of the insulin tolerance test response curve” value in [8] is about 60 mg/dL. The “independent effects on any variable studied” value in [9] is “no significant independent effects”. The visceral fat mass entry in [10] (control 4.5 g) was “not affected”. The “effect on body composition” value in [10] (high dose metformin 300 mg/kg bw) is “no significant effects”.

In the case of fucoxanthin, in [1], the “concentration that exerts no effect” value is listed as at most 100 nM.
